pIC50: −log10 of the molar value.

This assay deals with T1, Human plasma kallikrein (Homo sapiens, UniProt P03952).
T1 construct: purchased Kordia (Leiden, Netherlands) batch HPKA 1303
Nature of the assay: In vitro inhibition of plasma kallikrein (fluorogenic substrate DPro-Phe-Arg-(Rh110)-γGlu-OH). The assay is classed as biochemical. On the procedure: In Vitro Inhibition of Plasma Kallikrein
The fluorogenic substrate DPro-Phe-Arg-(Rh110)-γGlu-OH (where DPro is the amino acid d-proline, Rh110 is the fluorophore rhodamine 110 and γGlu is a […] linked to Rh110 via the gamma-carbonyl function; from Biosyntan, Berlin, Germany), being based on the chromogenic substrate described in Gallimore et al (Thromb Res 25, 293-298, 1982), was dissolved in DMSO at 5 mM and stored at −80° C. All other chemicals were of analytical grade.
Human plasma kallikrein was purchased from Kordia (Leiden, Netherlands, batch HPKA 1303) in lyophilized form.
The protein solution was reconstituted from the lyophilisate by addition of deinonized water. The resulting stock solution comprised the protein at a concentration of 0.17 mg/ml in 4 mM sodium acetate/HCl and 150 mM NaCl at pH 5.3. The stock solution was stored in aliquots at −80° C.
Enzymatic reactions were conducted in ‘assay buffer’, comprising 50 mM Hepes/NaOH at pH 7.8, 150 mM NaCl, 1 mM EDTA and 0.05% (w/v) CHAPS.
Both, enzyme and substrate were diluted in assay buffer.
All protein and peptide containing solutions were handled in siliconized tubes (Life Systems Design, Merenschwand, Switzerland). The compound solutions as well as the enzyme and the substrate solutions were transferred to 384-well plates (black Cliniplate; cat. no. 95040020 Labsystems Oy, Finland) by means of a CyBi-Well 96-channel pipettor (CyBio AG, Jena, Germany). Plate measurements were conducted by the means of a Safire2 reader (TECAN, Maennedorf, Switzerland). The Safire2 is a monochomator-based instrument and wavelengths of 485 nm and 535 nm were taken for fluorescence excitation and emission acquisition, respectively. The bandwidths were set to 10 nm in both the excitation and the emission path. The fluorescence in each well was excited by three flashes per measurement.
Determination of IC50 Values
For the determination of IC50 values, the assays were performed at room temperature in 384-well plates with a total assay volume of 25.25 μl per well.
The test compound was dissolved in 90% (v/v) DMSO/water. For the assays, 250 nL of the 90% (v/v) DMSO/water solution or compound solution were added per well, followed by the addition of 12.5 μl protease solution (protease in assay buffer). The final assay concentration of the human plasma kallikrein was nominally 12 pM, the 11 compound concentrations in the dilution series were in the range form 1 nM to 100 μM. After 1 hour of pre-incubation at room temperature, the reactions were started by the addition of 12.5 μl substrate solution (in assay buffer, final assay concentration was 0.5 μM). After the addition of the substrate solution, the final DMSO concentration in the assay was 0.9% (v/v). The effect of the compound on the enzymatic activity was obtained from the linear part of the progress curves and determined after 1 hour (t=60 min). The IC50 value was calculated from the plot of percentage of inhibition vs. inhibitor concentration by a logistics fit according to the following equation:
where y is the %-inhibition at the inhibitor concentration, x. A1 is the lowest inhibition value, i.e. 0%, and A2 the maximum inhibition value, i.e. 100%. The exponent, p, is the Hill coefficient. The curve fitting was conducted with the non-linear regression routine of the analysis software Origin 7.5SR6 (Origin Lab Corporation).

Where [1] appears, read: human plasma kallikrein 12 pM, substrate 0.5 μM, 1 hour pre-incubation at room temperature, read after 1 hour.
The mark [2] stands for this setting: the above-described assay (human plasma kallikrein).

T1 sequence (P03952 391-638 limits assumed): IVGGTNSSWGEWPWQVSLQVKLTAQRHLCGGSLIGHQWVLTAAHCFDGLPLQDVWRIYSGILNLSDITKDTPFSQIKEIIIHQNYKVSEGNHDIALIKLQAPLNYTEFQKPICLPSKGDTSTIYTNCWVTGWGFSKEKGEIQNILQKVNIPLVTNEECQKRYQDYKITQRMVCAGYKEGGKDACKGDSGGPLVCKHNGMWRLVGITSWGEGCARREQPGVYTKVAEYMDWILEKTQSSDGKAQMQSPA
T1 sequence (P03952 20-390 partner limits assumed): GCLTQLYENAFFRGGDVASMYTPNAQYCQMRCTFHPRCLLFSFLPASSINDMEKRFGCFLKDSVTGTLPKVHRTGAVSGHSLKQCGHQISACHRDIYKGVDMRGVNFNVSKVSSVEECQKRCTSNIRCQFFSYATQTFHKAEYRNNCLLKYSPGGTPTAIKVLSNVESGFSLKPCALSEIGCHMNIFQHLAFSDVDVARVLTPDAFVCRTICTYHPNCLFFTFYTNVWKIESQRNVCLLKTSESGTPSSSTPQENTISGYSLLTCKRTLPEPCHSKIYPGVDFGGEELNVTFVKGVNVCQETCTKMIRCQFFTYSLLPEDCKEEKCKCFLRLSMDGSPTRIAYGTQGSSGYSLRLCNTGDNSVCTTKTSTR

A word on the pIC50: it is −log10 of the IC50, conventionally taken in molar units. For `Cc1cc(N)nc(C)c1CNC(=O)c1ccc2ccccc2c1` [Example 6, N-((6-amino-2,4-dimethylpyridin-3-yl)methyl)-2-naphthamide], the pIC50 under setting [1] was 5.64.

The compound `Cc1cc(N)nc(C)c1CNC(=O)c1cc2ccccc2[nH]1` [Example 5, N-((6-amino-2,4-dimethylpyridin-3-yl)methyl)-1H-indole-2-carboxamide] had a pIC50 under setting [1] of 5.42.

For the compound `COc1cc2ncnc(NCc3c(C)cc(N)nc3C)c2cc1OC` [N-((6-amino-2,4-dimethyl-pyridin-3-yl)-methyl)-8,9-dimethoxy-2,4-diaza-bicyclo[4.4.0]deca-1(6),2,4,7,9-pentaen-5-amine], the pIC50 under setting [2] is below 4.52.

In turn, `Cc1cc(N)nc(C)c1CNc1ncnc2c1ccn2C` [N-((6-amino-2,4-dimethyl-pyridin-3-yl)-methyl)-9-methyl-2,4,9-triaza-bicyclo[4.3.0]nona-1(6),2,4,7-tetraen-5-amine] gave a pIC50 under setting [2] below 4.52.

For the compound `Cc1cc(N)nc(C)c1CNC(=O)c1cc2ccccc2o1` [Example 2, N-((6-amino-2,4-dimethylpyridin-3-yl)methyl)benzofuran-2-carboxamide], the pIC50 under setting [1] was 5.33.

Under setting [1], `Cc1cc(N)nc(C)c1CNc1ncc2ccn(Cc3ccc4ccccc4c3)c2n1` [Example 7, N-((6-amino-2,4-dimethylpyridin-3-yl)methyl)-7-(naphthalen-2-ylmethyl)-7H-pyrrolo[2,3-d]pyrimidin-2-amine] had a pIC50 of 5.79.

Turning to `Cc1cc(N)nc(C)c1CNc1ncnc2oc(Cc3c(Cl)cccc3Cl)nc12` [Example 4, N-((6-amino-2,4-dimethylpyridin-3-yl)methyl)-2-(2,6-dichlorobenzyl) oxazolo[5,4-d]pyrimidin-7-amine], under setting [1], the pIC50 was 5.75.

Take `Cc1cc(N)nc(C)c1CNC(=O)c1cc2ccccc2s1` [Example 3, N-((6-amino-2,4-dimethylpyridin-3-yl)methyl)benzo[b]thiophene-2-carboxamide]: under setting [1], the negative-log IC50 (pIC50) is 5.27.

Compound `CCc1cc2c(NCc3c(C)cc(N)nc3C)ncnc2s1` [Example 1, N-((6-amino-2,4-dimethylpyridin-3-yl)methyl)-6-ethylthieno[2,3-d]pyrimidin-4-amine] showed a pIC50 under setting [1] of 4.57.

The values are drawn from patent US20140350034A1, “Aminopyridine derivatives as plasma kallikrein inhibitors” (NOVARTIS AG, priority 2012, published 2014).
